A short description of data set [1]: Solubility assessment in water. The data set is classed as physicochemical. The settings on record: water; 0.4 μg/ml at molecular weight 308; read-out: solubility, concentration. How it is done: Water was added slowly to 4.7 mg of compound 5 until 4.7 ml of water was added at which point the phosphate fully dissolved. The pH of the solution was estimated using litmus paper and estimated to be <3. Without a counterion, the molecular weight of the phosphate is 418 m. Therefore, at 1 mg/ml, the concentration is 2.4 mM.
For comparison, compound 3 is soluble to 0.4 μg/ml (Han et al FASEB J. 2017 31(2):491-504), which at a molecular weight of 308 is 1.3 μM.
Compound 5 was suspended in water (at weight to give a final concentration of 10 mM) and then 2 eq NaHCO3 was added.

For data set [2] the following is noted: Han et al FASEB J. 2017; cited from earlier work.
Data set [3] can be described thus: Levels of compound 3 and compound 5 in rabbit nasal lavage and serum after nasal administration of compound 5. Type of data set: in vivo. How it is done: Six (6) female NZW rabbits were employed in this study. Rabbits were obtained from Covance (Denver Pa.). Rabbits were between approximately 10 and 12 months of age at the time of study start. At time point 0, all animals received 50 μL of solution containing rabbit IL4 (RND Systems/Biotechne) and human IL13 (PreproTech) at a concentration of 0.25 mg/mL each in 0.5×PBS containing 12.5 mg/mL BSA per nostril. This was administered intranasally via a venous catheter attached to a micropipette. The animal was positioned in a supine manner and the venous catheter inserted into the nostril. The volume was introduced into the nasal cavity and the same procedure was repeated with the other nostril.
At the 2, 4, and 6 hour time points, animals in Group 1 (n=3) received 0.2 mL of vehicle (0.9% saline) per nostril and the animals in Group 2 (n=3) received 0.2 mL of compound 5 (10 mM) in vehicle per nostril. The dosing of vehicle and compound 5 proceed as follows: The animal was positioned in a supine manner in a restraint bag and a mucosal atomization device (MAD) attached to the pre-filled tuberculin syringe was inserted into the nostril and introduced into the nasal cavity. The same procedure was repeated with the other nostril.
At the 8 hour time point, all the nostrils of all animals were lavaged with 1 mL of 0.9% saline per nostril and the resulting fluid collected. Intranasal lavages were performed as follows: The animals were held sternally in a restraint bag with the head over the edge of the table and the rear of the animal elevated higher than the head. A flexible venous catheter was inserted in the nostril until resistance was felt. The 1 mL of saline was introduced through the catheter into the nasal cavity. The nasal lavage returned from the nostril was collected via a funnel into a conical tube and the approximate volume recorded. This procedure was repeated for the other nostril. The lavage was stored at approximately −70° C. until analysis. Following (<10 minutes) the 8 hour time point lavage, blood was collected from all animals, processed to serum, and frozen at approximately −70° C. until analysis.
Nasal lavage and serum samples were analyzed for the levels of compound 3 and compound 5. Frozen tissue samples were weighed (20-120 mg) and placed into 2 mL CK14 homogenizing tubes (Bertin) and 500 μL of methanol containing 1 mM butylated hydroxy toluene (BHT) and 1 mM tris(2-carboxyethyl)phosphine (TCEP) was added. The tubes were placed in a Precellys 24 tissue homogenizer (Bertin) and run at 6000 rpm six times for 20 seconds with a 10 second pause between cycles. The tubes containing the homogenized tissue were then placed in a microfuge and centrifuged for 5′ at 14,000 rpm to pellet any insoluble material. Compound 3 was quantified using LC-MS/MS (QTrap5500, Applied Biosystems). Q1/Q3 Masses: 306.00/135.00 using a deschloro derivative of compound 3 (lacking chlorine at 4 position of pyrazole ring) as an internal standard. The Q1/Q3 Masses are 272.00/101.00 Da for the internal standard. Compound 3 was extracted using liquid/liquid extraction with methanol as a diluent. […] Compound 5 was quantified using LC-MS/MS (QTrap5500, Applied Biosystems). […] Compound 5 was detected in the lavage samples from Group 2 animals (rabbit 1, rabbit 2, rabbit 3) and ranged in average concentration from 0.016 uM-0.35 uM. […]

Each structure is given as a SMILES string. Converted amounts (≈) assume the structure as drawn. Like-named read-outs stand apart in the source and are kept apart here.

Turning to `O=C(Nc1ccc(F)cc1Cl)c1n[nH]c(Cl)c1Cl` [compound 3, 4,5-dichloro-N-(2-chloro-4-fluorophenyl)-1H-pyrazole-3-carboxamide], the figures for the solubility in data set [1] and in data set [2] were 1.3 µM (≈ 0.401 µg/mL) and 0.4 µg/mL (≈ 1.3 µM), respectively. Further, the concentration at 8 h in data set [3] (female, NZW, rabbit, nasal lavage, other: intranasal (mucosal atomization device), rabbits dosed with compound 5, 0.2 mL of 10 mM per nostril at 2, 4, 6 hours, lavage at 8 hours, range over 3 rabbits, read-out: average concentration of compound 3 in nasal lavage (FIG. 8)) lay in the range of 890 to 3100 nM. In addition, the “level in serum samples” value in data set [3] (rabbits, intranasal compound 5 10 mM, blood after the 8 hour lavage) was “no quantifiable”.

Values taken from patent US11116778B2, “Prodrugs of ALOX-15 inhibitors and methods of using the same” (EMPIRICO INC., priority 2019, dated 2021).
